Assay results reported in US20100160255A1, “SPIRO-CYCLIC COMPOUND” (Takeda Pharmaceutical Company Limited, priority 2005, published 2010).
Where two headings read alike, the source gives them in different places.

Assays:
human ACC1 = molecular target: T1, human ACC1 (Homo sapiens, UniProt Q13085); experiment: ACC1 inhibitory activity (malachite green absorbance assay, recombinant enzyme); format: biochemical
T1 construct: made in house; host or cells: SF-9 insect cells, recombinant baculovirus BAC-ACC1
Method: The ACC1 inhibitory activity of the compound of the present invention was evaluated by the following method.
(§1) Human ACC1 gene was cloned by PCR using human liver cDNA library (Clontech) as a template, and Primer 1 and Primer 2 shown below. Primer 1 and Primer 2 were prepared by adding recognition sequence of restriction enzymes SalI and NotI based on the information of the base sequence (Genbank Accession U19822) of human ACC1 gene.
(§2) PCR was performed using Pyrobest DNA polymerase (TAKARA BIO INC.). The obtained PCR product was cloned to pT7 Blue vector (Novagen) which was, after confirmation of the base sequence, digested with restriction enzymes SalI and NotI. The obtained DNA fragment was inserted into pFAST-BacHTc (Invitrogen) digested with restriction enzymes SalI and NotI to give expression plasmid ACC1/pFAST-BacHTc.
Using the expression plasmid and BAC-TO-BAC Baculovirus Expression System (Invitrogen), virus stock BAC-ACC1 of recombinant Baculovirus was prepared.
(§3) SF-9 cells (Invitrogen) were sown at 1×10^6 cells/mL to insect cell culture medium (1 L, Sf-900II SFM medium (Invitrogen) containing 10% fetal bovine serum (Trace), 50 mg/L gentamicin (Invitrogen) and 0.1% Pluronic F-68 (Invitrogen)), and shaking culture was performed using a 2 L volume Erlenmeyer flask at 27° C., 100 rpm.
After culturing for 24 hr, the recombinant Baculovirus BAC-ACC1 (10 mL) was added, and the mixture was further cultured for 3 days. The culture medium was centrifuged at 1000×g for 5 min to give virus-infected cells. The infected cells were washed with phosphate buffered saline (Invitrogen) and centrifuged under the same conditions, and the obtained cells were cryopreserved at −80° C.
The cryopreserved cells were thawed in ice, suspended in 25 mM HEPES buffer (100 mL, pH 7.5) containing 10% Glycerol, 0.13 M NaCl, 1 mM EDTA, 25 mM sodium β-glycerophosphate, 1 mM sodium orthovanadate, added with Complete Protease Inhibitor (Boehringer). The obtained suspension was homogenized 3 times with a Polytron homogenizer (Kinematica) at 20,000 rpm for 30 seconds. The obtained cell disrupt solution was clarified by centrifugation at 185700×g for 50 min and filtrated using a 0.45 μm filter. The filtrate was passed through a column packed with Ni-NTA Super Flow Gel (QIAGEN, 12 mL) at a flow rate of about 5 mL/min. The column was washed with buffer A (50 mM HEPES containing 0.3M NaCl, pH 7.5), further washed with buffer A containing 20 mM Imidazole, and eluted with buffer A containing 100 mM Imidazole. The eluate was concentrated with Vivaspin 20 (Vivascience) having a molecular weight cut off of 30 K. The obtained concentrate was dialyzed using Sephadex G-25 (Amersham Bioscience K.K., 358 mL) equilibrated with 50 mM HEPES (pH7.5) containing 10 mM MgCl2, 2 mM dithiothreitol, 10 mM tripotassium citrate and 0.3M NaCl. The dialysate was concentrated with Vivaspin 20 (Vivascience) having a molecular weight cut off of 30 K and the concentrate was filtered through a 0.22 μm filter to give ACC1. The obtained ACC1 was cryopreserved at −80° C.
ACC1 (0.93 mg/ml) obtained in (2) above was diluted to a concentration of 8 μg/ml with an enzyme reaction buffer (50 mM HEPES (pH7.5), 10 mM MgCl2, 10 mM tripotassium citrate, 2 mM dithiothreitol, 0.75 mg/ml fatty acid free BSA), and added to each well of a 384 well assay plate (Nunc 265196) by 10 μl. […]

human ACC2 = molecular target: T2, human ACC2 (Homo sapiens, UniProt O00763); experiment: ACC2 inhibitory activity (malachite green absorbance assay, recombinant ACC2(Nd)); format: biochemical
T2 construct: made in house; host or cells: SF-9 insect cells, recombinant baculovirus BAC-ACC2(Nd)
T2 sequence (O00763 117-2458 limits assumed): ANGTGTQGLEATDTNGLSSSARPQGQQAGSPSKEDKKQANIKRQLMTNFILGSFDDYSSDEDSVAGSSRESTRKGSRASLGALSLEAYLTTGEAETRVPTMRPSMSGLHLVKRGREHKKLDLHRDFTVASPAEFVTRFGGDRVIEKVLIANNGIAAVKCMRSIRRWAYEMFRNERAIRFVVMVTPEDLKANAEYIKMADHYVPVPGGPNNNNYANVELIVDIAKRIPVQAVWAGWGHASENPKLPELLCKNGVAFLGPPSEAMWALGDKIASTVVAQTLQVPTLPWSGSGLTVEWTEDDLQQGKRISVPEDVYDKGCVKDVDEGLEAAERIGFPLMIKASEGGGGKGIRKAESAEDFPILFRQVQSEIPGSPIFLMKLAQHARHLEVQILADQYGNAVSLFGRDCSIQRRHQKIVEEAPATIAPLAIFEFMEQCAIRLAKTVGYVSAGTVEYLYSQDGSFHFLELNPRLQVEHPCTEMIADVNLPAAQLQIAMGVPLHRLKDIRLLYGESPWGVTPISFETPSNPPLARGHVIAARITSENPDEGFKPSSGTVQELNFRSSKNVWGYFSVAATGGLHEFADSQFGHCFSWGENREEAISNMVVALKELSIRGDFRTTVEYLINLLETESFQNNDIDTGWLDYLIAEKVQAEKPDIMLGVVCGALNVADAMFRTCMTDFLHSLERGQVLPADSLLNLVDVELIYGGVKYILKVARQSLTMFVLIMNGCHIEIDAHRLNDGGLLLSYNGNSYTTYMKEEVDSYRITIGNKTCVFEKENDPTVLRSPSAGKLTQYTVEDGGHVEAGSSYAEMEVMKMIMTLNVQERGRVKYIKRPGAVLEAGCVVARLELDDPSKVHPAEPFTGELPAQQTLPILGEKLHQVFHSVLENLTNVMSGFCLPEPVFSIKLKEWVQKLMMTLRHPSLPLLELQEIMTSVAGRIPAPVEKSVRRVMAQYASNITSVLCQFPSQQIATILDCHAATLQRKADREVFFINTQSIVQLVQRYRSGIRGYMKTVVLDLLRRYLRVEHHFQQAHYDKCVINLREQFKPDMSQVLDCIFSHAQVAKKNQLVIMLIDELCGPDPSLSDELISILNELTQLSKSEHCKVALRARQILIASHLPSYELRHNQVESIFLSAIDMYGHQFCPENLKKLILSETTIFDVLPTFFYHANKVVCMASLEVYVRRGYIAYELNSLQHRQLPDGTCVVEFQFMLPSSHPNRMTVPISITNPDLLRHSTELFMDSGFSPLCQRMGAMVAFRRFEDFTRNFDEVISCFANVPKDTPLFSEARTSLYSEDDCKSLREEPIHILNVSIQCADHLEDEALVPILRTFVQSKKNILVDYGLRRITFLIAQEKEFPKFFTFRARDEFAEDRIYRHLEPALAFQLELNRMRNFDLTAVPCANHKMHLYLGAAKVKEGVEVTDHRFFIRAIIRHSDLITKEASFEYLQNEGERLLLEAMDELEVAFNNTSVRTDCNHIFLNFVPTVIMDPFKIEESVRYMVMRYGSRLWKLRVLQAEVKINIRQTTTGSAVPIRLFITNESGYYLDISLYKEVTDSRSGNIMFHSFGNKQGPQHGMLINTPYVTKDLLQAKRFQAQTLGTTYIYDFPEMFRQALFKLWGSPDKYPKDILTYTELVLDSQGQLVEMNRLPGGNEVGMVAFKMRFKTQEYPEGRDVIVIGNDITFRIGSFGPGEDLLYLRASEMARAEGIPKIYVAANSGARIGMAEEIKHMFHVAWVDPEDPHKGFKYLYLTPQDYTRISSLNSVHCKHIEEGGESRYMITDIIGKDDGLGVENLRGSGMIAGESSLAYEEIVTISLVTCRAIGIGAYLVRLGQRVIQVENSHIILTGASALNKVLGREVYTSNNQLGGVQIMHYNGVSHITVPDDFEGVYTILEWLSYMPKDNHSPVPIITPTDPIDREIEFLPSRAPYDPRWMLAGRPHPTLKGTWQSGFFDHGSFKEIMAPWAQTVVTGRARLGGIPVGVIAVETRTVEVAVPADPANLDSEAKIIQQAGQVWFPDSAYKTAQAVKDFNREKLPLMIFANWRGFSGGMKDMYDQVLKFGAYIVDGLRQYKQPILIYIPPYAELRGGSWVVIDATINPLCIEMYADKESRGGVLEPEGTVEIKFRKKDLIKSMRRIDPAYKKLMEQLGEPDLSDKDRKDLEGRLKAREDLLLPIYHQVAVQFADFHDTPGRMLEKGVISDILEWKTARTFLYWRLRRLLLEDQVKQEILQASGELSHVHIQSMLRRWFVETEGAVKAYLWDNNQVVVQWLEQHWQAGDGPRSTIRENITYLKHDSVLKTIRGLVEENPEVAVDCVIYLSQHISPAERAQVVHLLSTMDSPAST
Method: The ACC2 inhibitory activity of the compound of the present invention was evaluated by the following method.
as §1, with “ACC2” for “ACC1”, “skeletal muscle” for “liver”, “XbaI” for “NotI”, “U89344)” for “U19822)”
as §2, with “XbaI.” for “NotI.”, “pFAST-BacHTa” for “pFAST-BacHTc”, “XbaI” for “NotI”, “ACC2/pFAST-BacHTa.” for “ACC1/pFAST-BacHTc.”
A plasmid for expression of ACC2 free of mitochondrial targeting sequence was prepared by PCR using the expression plasmid as a template, and Primer 3 and Primer 4 shown below.
as §2, with “AflII.” for “NotI.”, “pFAST-BacHTa” for “pFAST-BacHTc”, “AflII” for “NotI”, “ACC2mito7/pFAST-BacHTa.” for “ACC1/pFAST-BacHTc.”
Using the expression plasmid and BAC-TO-BAC Baculovirus Expression System (Invitrogen), virus stock BAC-ACC2 of recombinant Baculovirus (N terminal deletion (hereinafter Nd)) was prepared.
as §3, with “0.5×10^6” for “1×10^6”, “(2” for “(1”, “Wave Bioreactor (Wave) under the conditions of” for “2 L volume Erlenmeyer flask at”, “20 rpm, rocking angle of 6° and oxygen concentration of 30%.” for “100 rpm.”
On day 4 of the culture, 3 L of an insect cell culture medium was added, the rocking angle was set to 8°, and the cells were further cultured. On day 5 of the culture, the recombinant Baculovirus BAC-ACC2(Nd) (100 mL) was added, 5 L of the insect cell culture medium was further added, the rocking angle was set to 11°, and the cells were cultured for 3 days. The culture medium was centrifuged at 1000×g for 10 min to give virus-infected cells. The infected cells were washed with phosphate buffered saline (Invitrogen) and centrifuged under the same conditions, and the obtained cells were cryopreserved at −80° C.
The cryopreserved cells were thawed in ice, suspended in 25 mM HEPES buffer (900 mL, pH 7.5) containing 10% Glycerol, 0.13 M NaCl, 1 mM EDTA, 25 mM sodium β-glycerophosphate, 1 mM sodium orthovanadate, added with Complete Protease Inhibitor (Boehringer). The obtained suspension was homogenized 3 times with a Polytron homogenizer (Kinematica) at 20,000 rpm for 30 seconds. The obtained cell disrupt solution was clarified by centrifugation at 31000×g for 60 min and filtrated using a 0.45 μm filter. The filtrate was passed through a column packed with Ni-NTA Super Flow Gel (QIAGEN, 60 mL) at a flow rate of about 5 mL/min. The column was washed with buffer A (50 mM HEPES containing 0.3M NaCl, pH 7.5), further washed with buffer A containing 20 mM Imidazole, and eluted with buffer A containing 100 mM Imidazole. The eluate was concentrated with Vivaspin 20 (Vivascience) having a molecular weight cut off of 30 K. The obtained concentrate was dialyzed against 50 mM HEPES (pH7.5) containing 10 mM MgCl2, 2 mM dithiothreitol, 10 mM tripotassium citrate and 0.3M NaCl. The dialysate was filtered through a 0.22 μm filter to give ACC2(Nd). The obtained ACC2(Nd) was cryopreserved at −80° C. […]

[1] = Table 8, recombinant human ACC1, 30° C., absorbance 620 nm, read-out: IC50 (ACC1 inhibitory activity)
[2] = Table 9, recombinant human ACC2(Nd), N terminal deletion, 30° C., absorbance 620 nm, read-out: IC50 (ACC2 inhibitory activity)
[3] = Experimental Example 3, same manner as Experimental Example 1, read-out: IC50 values (ACC1 inhibitory activity)

Compound	IC50 (human ACC1; [1]) [nM]	IC50 (human ACC2; [2]) [nM]	IC50 (human ACC1; [3]) [nM]	IC50 (human ACC2; Experimental Example 4, same manner as Experimental Example 2, read-out: IC50 values (ACC2 inhibitory activity)) [nM]
CCN1C(=O)CC2(CCCN(C3CCN(C(=O)c4c(NC(N)=O)sc5ccccc45)CC3)C2)C1=O (racemic) [Example 240, 1-(3-{[4-(2-ethyl-1,3-dioxo-2,7-diazaspiro[4.5]dec-7-yl)piperidin-1-yl]carbonyl)-1-benzothien-2-yl)urea]	350	23		
CCNC(=O)Nc1sc2ccccc2c1C(=O)N1CCC(N2CCCC3(C2)CC(C)(C)OC3=O)CC1 (single isomer, unassigned) [Example 319, N-(3-{[4-(3,3-Dimethyl-1-oxo-2-oxa-7-azaspiro[4.5]dec-7-yl)piperidin-1-yl]carbonyl}-1-benzothien-2-yl)-N′-ethylurea]	30	5	≤ 100	≤ 10
CCN1CCC2(CCCN(C3CCN(C(=O)c4c5ccccc5cc5ccccc45)CC3)C2)C1=O (stereo not shown) [Example 1, 7-[1-(9-anthrylcarbonyl)piperidin-4-yl]-2-ethyl-2,7-diazaspiro[4.5]decan-1-one]	1900	140		
Cc1c(C(=O)OC(C)(C)C)sc(NC(N)=O)c1C(=O)N1CCC(N2CCCC3(C2)CC(C)(C)OC3=O)CC1 (stereo not shown) [Example 291, tert-butyl 5-[(aminocarbonyl)amino]-4-{[4-(3,3-dimethyl-1-oxo-2-oxa-7-azaspiro[4.5]dec-7-yl)piperidin-1-yl]carbonyl}-3-methylthiophene-2-carboxylate]			≤ 100	
CCNC(=O)Nc1sc2ccccc2c1C(=O)N1CCC(N2CCCC3(C2)OC(=O)N(C(C)(C)C)C3=O)CC1 (stereo not shown) [Example 350, N-(3-{[4-(3-tert-butyl-2,4-dioxo-1-oxa-3,7-diazaspiro[4.5]dec-7-yl)piperidin-1-yl]carbonyl}-1-benzothien-2-yl)-N′-ethylurea]			≤ 100	
CCNC(=O)Nc1sc2ccccc2c1C(=O)N1CCC(N2CCCC3(C2)N=C(CC)N(CC)C3=O)CC1 (stereo not shown) [Example 354, N-(3-{[4-(2,3-diethyl-4-oxo-1,3,7-triazaspiro[4.5]dec-1-en-7-yl)piperidin-1-yl]carbonyl}-1-benzothien-2-yl)-N′-ethylurea]			≤ 100	
CCN1C(=O)C2(CCCN(C3CCN(C(=O)c4c(NC(N)=O)sc5ccccc45)CC3)C2)N=C1C(C)C (stereo not shown) [Example 357, N-(3-{[4-(3-ethyl-2-isopropyl-4-oxo-1,3,7-triazaspiro[4.5]dec-1-en-7-yl)piperidin-1-yl]carbonyl}-1-benzothien-2-yl)urea]			≤ 100	

Further lines, results first:

IC50 (human ACC1; [1]) [nM]	IC50 (human ACC2; [2]) [nM]	IC50 (human ACC1; [3]) [nM]	IC50 (human ACC2; Experimental Example 4, same manner as Experimental Example 2, read-out: IC50 values (ACC2 inhibitory activity)) [nM]	Compound
190	41			CCNC(=O)Nc1sc2ccccc2c1C(=O)N1CCC(N2CCCC3(C2)OC(=O)N(CC)C3=O)CC1 (racemic) [Example 228, N-ethyl-N′-(3-{[4-(3-ethyl-2,4-dioxo-1-oxa-3,7-diazaspiro[4.5]dec-7-yl)piperidin-1-yl]carbonyl}-1-benzothien-2-yl)urea]
110	17			CCNC(=O)Nc1sc2ccccc2c1C(=O)N1CCC(N2CCCC3(C2)N=C(C)N(CC)C3=O)CC1 (racemic) [Example 233, 1-ethyl-3-(3-{[4-(3-ethyl-2-methyl-4-oxo-1,3,7-triazaspiro[4.5]dec-1-en-7-yl)piperidin-1-yl]carbonyl}-1-benzothien-2-yl)urea]
360	34			CCNC(=O)Nc1sc2ccccc2c1C(=O)N1CCC(N2CCCC3(CCN(CC)C3=O)C2)CC1 (racemic) [Example 321, N-ethyl-N′-(3-{[4-(2-ethyl-1-oxo-2,7-diazaspiro[4.5]dec-7-yl)piperidin-1-yl]carbonyl}-1-benzothien-2-yl)urea]
		≤ 100		CCNC(=O)Nc1sc2ccccc2c1C(=O)N1CCC(N2CCNC3(C2)CC(C)(C)OC3=O)CC1 (stereo not shown) [Example 184, 1-(3-{[4-(3,3-dimethyl-1-oxo-2-oxa-6,9-diazaspiro[4.5]dec-9-yl)piperidin-1-yl]carbonyl}-1-benzothien-2-yl)-3-ethylurea]
		≤ 100		CCNC(=O)Nc1sc2ccccc2c1C(=O)N1CCC(N2CCCC3(CC(C)N(CCO)C3=O)C2)CC1 (stereo not shown) [Example 187, 1-ethyl-3-[3-({4-[2-(2-hydroxyethyl)-3-methyl-1-oxo-2,7-diazaspiro[4.5]dec-7-yl]piperidin-1-yl}carbonyl)-1-benzothien-2-yl]urea]
		≤ 100		CC1(C)CC2(CCCN(C3CCN(C(=O)c4c(NC(N)=O)sc5ccccc45)CC3)C2)C(=O)O1 (stereo not shown) [Example 290, N-(3-{[4-(3,3-dimethyl-1-oxo-2-oxa-7-azaspiro[4.5]dec-7-yl)piperidin-1-yl]carbonyl}-1-benzothien-2-yl)urea]
		≤ 100		CNC(=O)Nc1sc2ccccc2c1C(=O)N1CCC(N2CCCC3(C2)CC(C)(C)OC3=O)CC1 (stereo not shown) [Example 324, N-(3-{[4-(3,3-dimethyl-1-oxo-2-oxa-7-azaspiro[4.5]dec-7-yl)piperidin-1-yl]carbonyl}-1-benzothien-2-yl)-N′-methylurea]
